Target: T1, CFTR (Homo sapiens, UniProt P13569, DEL508-508)
T1 construct: endogenous in cells; host or cells: primary human bronchial epithelial cells, F508del/MF genotype
Assay: HBE Assay: Ussing chamber assay of CFTR-mediated short-circuit currents in F508del/MF-HBE cells with 1 μM Ivacaftor
Type: cell-based
Details: 20% human serum; for EC50 / Emax / HBE Max Activity: 18-24 hours; for Emax: compared to known Vertex corrector with 18 μM Tezacaftor and 1 μM Ivacaftor, read-out: HBE Max activity (%); for HBE Activity at 10 μM: single fixed concentration of 10 μM
Procedure, shortened: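 F508del/MF-HBE cells at air-liquid interface >14 days were incubated 18-24 h at 37° C with corrector (concentration range or fixed 10 μM) plus 1 μM Ivacaftor in 20% human serum, compounds kept throughout. Ussing chamber, Vhold=0 mV, 37° C, apical amiloride 30 μM; ISC (μA/cm^2) from peak 20 μM forskolin response to steady state after CFTR inhibitor cocktail.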

[1] = range of concentrations with 1 μM Ivacaftor

T1 sequence (P13569 with tags, fused parts or gaps DEL508-508): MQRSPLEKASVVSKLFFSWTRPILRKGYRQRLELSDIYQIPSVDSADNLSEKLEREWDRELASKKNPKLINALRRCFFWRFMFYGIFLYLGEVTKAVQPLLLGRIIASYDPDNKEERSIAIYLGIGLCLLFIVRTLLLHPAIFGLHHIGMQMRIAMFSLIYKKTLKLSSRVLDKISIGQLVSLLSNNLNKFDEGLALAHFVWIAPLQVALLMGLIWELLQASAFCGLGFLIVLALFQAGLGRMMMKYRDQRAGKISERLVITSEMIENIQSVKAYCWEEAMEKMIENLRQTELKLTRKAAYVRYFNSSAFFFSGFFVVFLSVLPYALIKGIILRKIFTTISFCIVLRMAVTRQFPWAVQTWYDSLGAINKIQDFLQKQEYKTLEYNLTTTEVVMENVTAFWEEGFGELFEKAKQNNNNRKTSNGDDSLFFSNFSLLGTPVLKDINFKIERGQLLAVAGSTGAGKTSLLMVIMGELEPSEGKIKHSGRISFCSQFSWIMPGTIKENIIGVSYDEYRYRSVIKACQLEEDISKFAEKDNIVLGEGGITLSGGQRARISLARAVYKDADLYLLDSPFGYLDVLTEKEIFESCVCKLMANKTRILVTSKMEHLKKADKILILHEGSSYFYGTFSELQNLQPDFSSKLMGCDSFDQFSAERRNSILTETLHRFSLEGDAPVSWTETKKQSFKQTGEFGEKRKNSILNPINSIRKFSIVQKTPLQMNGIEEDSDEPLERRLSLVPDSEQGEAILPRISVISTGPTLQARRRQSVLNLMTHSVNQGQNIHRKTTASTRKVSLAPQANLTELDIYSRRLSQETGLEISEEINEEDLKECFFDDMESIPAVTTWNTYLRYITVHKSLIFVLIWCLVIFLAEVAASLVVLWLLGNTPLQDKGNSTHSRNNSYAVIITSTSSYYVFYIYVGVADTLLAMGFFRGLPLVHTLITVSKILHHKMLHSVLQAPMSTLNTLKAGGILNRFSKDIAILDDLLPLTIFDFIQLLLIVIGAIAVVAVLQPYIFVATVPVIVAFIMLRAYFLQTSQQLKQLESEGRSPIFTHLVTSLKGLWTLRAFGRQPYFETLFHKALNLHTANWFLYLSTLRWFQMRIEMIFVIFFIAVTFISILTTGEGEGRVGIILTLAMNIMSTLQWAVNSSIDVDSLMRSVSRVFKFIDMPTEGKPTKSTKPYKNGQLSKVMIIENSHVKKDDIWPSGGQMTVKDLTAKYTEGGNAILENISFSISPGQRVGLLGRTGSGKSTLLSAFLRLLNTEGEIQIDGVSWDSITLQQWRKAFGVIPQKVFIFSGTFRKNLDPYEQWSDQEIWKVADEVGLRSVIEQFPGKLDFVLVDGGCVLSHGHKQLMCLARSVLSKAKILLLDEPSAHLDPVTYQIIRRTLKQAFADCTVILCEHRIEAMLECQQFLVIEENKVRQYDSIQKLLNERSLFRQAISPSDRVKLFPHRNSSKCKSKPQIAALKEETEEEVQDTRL

Row | Structure (SMILES) | EC50 [1] [nM] | Emax (with 1 μM Ivacaftor) [%] | EC50 (with 1 μM Ivacaftor) [nM] | HBE Max Activity (with 1 μM Ivacaftor) | HBE Activity at 10 μM (with 1 μM Ivacaftor)
1 | Cc1cccc(C)c1-c1nc2nc(c1F)OC[C@@H](CC1CC1)N(Cc1ncc(OC(C)C)cn1)C(=O)c1cccc(c1)S(=O)(=O)N2 [Compound 343] | 1000 to 3000 | > 60 | – | – | –
2 | Cc1cccc(C)c1-c1nc2nc(c1C)OC[C@@H](CC(C)C)N(Cc1ncc(N3CCC(C)(C)C3)cn1)C(=O)c1cccc(c1)S(=O)(=O)N2 [Compound 199] | – | – | < 1000 | +++ (+++ is >600%) | –
3 | Cc1cccc(C2CC2)c1-c1nc2nc(c1C)OC[C@@H](CC(C)(C)C)N(Cc1ccc(N3CCOCC3)cn1)C(=O)c1cccc(c1)S(=O)(=O)N2 (atropisomer, axis not shown) [Compound 228] | – | – | < 1000 | +++ (+++ is >600%) | –
4 | Cc1cccc(CC(C)C)c1-c1nc2nc(c1C)OC[C@@H](CC(C)C)N(Cc1cnc(C3CCOCC3)cn1)C(=O)c1cccc(c1)S(=O)(=O)N2 (atropisomer, axis not shown) [Compound 314] | – | – | < 1000 | +++ (+++ is >600%) | –
5 | Cc1cccc(C)c1-c1nc2nc(c1C)OC[C@@H](CC(C)(C)C)N(Cc1cnc(C3CCOCC3)cn1)C(=O)c1cccc(c1)S(=O)(=O)N2 [Compound 331] | < 1000 | > 60 | – | – | –
6 | Cc1cccc(CC(C)C)c1-c1nc2nc(c1C)OC[C@@H](CC(C)(C)C)NC(=O)c1cccc(c1)S(=O)(=O)N2 (atropisomer, axis not shown) [Compound 226] | – | – | – | – | +++ (+++ is >600%)
7 | Cc1cccc(CC2CCCCC2)c1-c1nc2nc(c1C(F)(F)F)OC[C@@H](CC(C)(C)C)N(Cc1ccc(N3CCOCC3)cn1)C(=O)c1cccc(c1)S(=O)(=O)N2 (atropisomer, axis not shown) [Compound 248] | – | – | – | – | +++ (+++ is >600%)
8 | Cc1cccc(CC2CCCCC2)c1-c1nc2nc(c1C)OC[C@@H](CC(C)(C)C)N(Cc1nccc(N3CCOCC3)n1)C(=O)c1cccc(c1)S(=O)(=O)N2 (atropisomer, axis not shown) [Compound 263] | – | – | < 1000 | +++ (+++ is >600%) | –
9 | Cc1cccc(C)c1-c1nc2nc(c1C)OC[C@@H](CC(C)(C)C)N(Cc1ncc(N3CCC(C)(C)CC3)cn1)C(=O)c1cccc(c1)S(=O)(=O)N2 [Compound 192] | – | – | – | – | +++ (+++ is >600%)
10 | Cc1cccc(CC(C)C)c1-c1nc2nc(c1C(F)(F)F)OC[C@@H](CC(C)(C)C)N(Cc1ncc(N3CCOCC3)cn1)C(=O)c1cccc(c1)S(=O)(=O)N2 (single isomer, unassigned) [Compound 212] | – | – | < 1000 | +++ (+++ is >600%) | –
11 | COCCN(C)c1ccc(CN2C(=O)c3cccc(c3)S(=O)(=O)Nc3nc(c(C)c(-c4c(C)cccc4CC4CCCCC4)n3)OC[C@H]2CC(C)(C)C)nc1 (atropisomer, axis not shown) [Compound 290] | – | – | < 1000 | +++ (+++ is >600%) | –
12 | Cc1cccc(CC2CCCCC2)c1-c1nc2nc(c1C)OC[C@@H](CC(C)(C)C)N(Cc1ncc(N3CCOCC3)cn1)C(=O)c1cccc(c1)S(=O)(=O)N2 (atropisomer, axis not shown) [Compound 306] | – | – | < 1000 | +++ (+++ is >600%) | –
13 | COCCN(C)c1cnc(CN2C(=O)c3cccc(c3)S(=O)(=O)Nc3nc(c(C)c(-c4c(C)cccc4CC(C)C)n3)OC[C@H]2CC(C)(C)C)nc1 (atropisomer, axis not shown) [Compound 294] | – | – | < 1000 | +++ (+++ is >600%) | –
14 | Cc1cccc(CC2CCOCC2)c1-c1nc2nc(c1C)OC[C@@H](CC(C)(C)C)N(Cc1ncc(N3CCOCC3)cn1)C(=O)c1cccc(c1)S(=O)(=O)N2 (atropisomer, axis not shown; (M)) [Compound 217, (5M,11R)-11-(2,2-dimethylpropyl)-7-methyl-6-{2-methyl-6-[(oxan-4-yl)methyl]phenyl}-12-{[5-(morpholin-4-yl)pyrimidin-2-yl]methyl}-9-oxa-2λ^6-thia-3,5,12,19-tetraazatricyclo[12.3.1.14,8]nonadeca-1(17),4(19),5,7,14(18),15-hexaene-2,2,13-trione] | – | – | – | – | ++ (++ is 30-60%)
15 | Cc1cccc(CC2CCCCC2)c1-c1nc2nc(c1C)OC[C@@H](CC(C)(C)C)NC(=O)c1cccc(c1)S(=O)(=O)N2 (atropisomer, axis not shown) [Compound 311] | – | – | < 1000 | +++ (+++ is >600%) | –
16 | Cc1cccc(CC(C)C)c1-c1nc2nc(c1C)OC[C@@H](CC(C)(C)C)N(Cc1ccc(N3CCOCC3)cn1)C(=O)c1cccc(c1)S(=O)(=O)N2 (atropisomer, axis not shown) [Compound 297] | – | – | < 1000 | +++ (+++ is >600%) | –
17 | Cc1cccc(CC2CCCCC2)c1-c1nc2nc(c1C)OC[C@@H](CC(C)(C)C)NC(=O)c1cccc(c1)S(=O)(=O)N2 (atropisomer, axis not shown) [Compound 312] | – | – | < 1000 | ++ (++ is 30-60%) | –
18 | Cc1cccc(CC2CCCCC2)c1-c1nc2nc(c1C)OC[C@@H](CC(C)(C)C)N(Cc1ncc(C3CCCCC3)cn1)C(=O)c1cccc(c1)S(=O)(=O)N2 (atropisomer, axis not shown) [Compound 276] | – | – | < 1000 | +++ (+++ is >600%) | –
19 | Cc1cccc(CC2CCCC2)c1-c1nc2nc(c1C)OC[C@@H](CC(C)(C)C)N(Cc1ccc(N3CCOCC3)cn1)C(=O)c1cccc(c1)S(=O)(=O)N2 (atropisomer, axis not shown) [Compound 288] | – | – | – | – | +++ (+++ is >600%)
20 | Cc1cccc(CC2CCCCC2)c1-c1nc2nc(c1C)OC[C@@H](CC(C)(C)C)N(Cc1ncc(N3CCC(C)(C)CC3)cn1)C(=O)c1cccc(c1)S(=O)(=O)N2 (atropisomer, axis not shown) [Compound 260] | – | – | < 1000 | +++ (+++ is >600%) | –
21 | Cc1cccc(CC2CCCCC2)c1-c1nc2nc(c1C)OC[C@@H](CC(C)(C)C)N(Cc1ncc(OC(C)C)cn1)C(=O)c1cccc(c1)S(=O)(=O)N2 [Compound 234] | – | – | < 1000 | +++ (+++ is >600%) | –
22 | Cc1cccc(C)c1-c1nc2nc(c1C)OC[C@@H](C(C)C)N(Cc1cncc(N(C)CC(C)(C)C)n1)C(=O)c1cccc(c1)S(=O)(=O)N2 [Compound 195] | – | – | < 1000 | +++ (+++ is >600%) | –
23 | Cc1cccc(CC2CCOCC2)c1-c1nc2nc(c1C)OC[C@@H](CC(C)(C)C)N(Cc1ncc(N3CCC(C)(C)C3)cn1)C(=O)c1cccc(c1)S(=O)(=O)N2 (atropisomer, axis not shown) [Compound 272] | – | – | – | – | ++ (++ is 30-60%)
24 | Cc1cccc(CC2CCCCC2)c1-c1nc2nc(c1C)OC[C@@H](CC(C)(C)C)N(Cc1nccc(N(C)C)n1)C(=O)c1cccc(c1)S(=O)(=O)N2 (atropisomer, axis not shown) [Compound 261] | – | – | < 1000 | +++ (+++ is >600%) | –
25 | Cc1cccc(CC2CCCCC2)c1-c1nc2nc(c1C)OC[C@@H](CC(C)(C)C)N(Cc1ncc(N3CCOCC3)cn1)C(=O)c1cccc(c1)S(=O)(=O)N2 (atropisomer, axis not shown) [Compound 305] | – | – | < 1000 | +++ (+++ is >600%) | –

Source: patent US20230374038A1, “MODULATORS OF CYSTIC FIBROSIS TRANSMEMBRANE CONDUCTANCE REGULATOR” (VERTEX PHARMACEUTICALS INCORPORATED, priority 2020, published 2023)
